Reference: US10098878B2, “HIF-2α inhibitors for treating iron overload disorders” (The Board of Regents of the University of Texas System, priority 2014, dated 2018)
pEC50, pIC50: −log10 of the molar value. Read-outs that look alike come from different tables or passages of the source.

What was measured:
786-O-Hif-Luc cells = experiment: Luciferase Assay; type: cell-based; conditions: read-out: Luciferase EC50
Experimental: A pool of infected cells were then selected against 2 μg/mL of puromycin (P8833, Sigma) for 10 days followed by limited dilution to select single clones.
Each concentration was tested in triplicate. After about 24 hours, luciferase activity was determined using ONE-Glo Luciferase Assay Reagent (E6110, Promega) following the manufacturer's recommended procedure. EC50 were calculated by using Dotmatics software.

[1] = molecular target: T1, HIF-2α HIS TAG-PASB Domain (Homo sapiens, UniProt Q99814); experiment: HIF-2α Scintillation Proximity Assay (SPA); type: binding; conditions: 100 nM HIF-2α HIS TAG-PASB Domain
T1 construct: 100 nM HIF-2α HIS TAG-PASB Domain
Procedure, shortened: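 IC50 values rest on percent inhibition, where the sample signal is scaled between high and low controls. Wells contain about 100 μL: compound dispensed as 2 μL of DMSO solution, 88 μL protein-probe mix and 10 μL of beads.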

[2] = 24 h, 786-O-Hif-Luc cells, about 24 hours
[3] = 150 nM Compound 211 probe, read-out: SPA IC50
[4] = 786-O-Hif-Luc cells, about 24 hours
[5] = SPA IC50, 150 nM Compound 211 probe

T1 sequence (Q99814 240-350 limits assumed): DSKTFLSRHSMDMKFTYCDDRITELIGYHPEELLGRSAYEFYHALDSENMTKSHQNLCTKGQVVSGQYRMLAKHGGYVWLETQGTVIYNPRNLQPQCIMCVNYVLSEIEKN

SMILES	pEC50 (786-O-Hif-Luc cells; [2])	pIC50 [1, 3]	also measured
N#Cc1c(Oc2cc(F)cc(F)c2)ccc2c1C(O)C(F)S2(=O)=O (centres unmarked) [Compound 154, 5-(3,5-Difluorophenoxy)-2-fluoro-3-hydroxy-2,3-dihydrobenzo[b]thiophene-4-carbonitrile 1,1-dioxide]	6.10	5.79	
N#Cc1cc(F)cc(Oc2ccc(S(=N)(=O)CF)c3c2CC(F)(F)[C@H]3O)c1 (single isomer, unassigned) [Compound 39]		7.12	pEC50 (786-O-Hif-Luc cells; [4]): 6.59
CS(=O)(=O)c1ccc(Oc2cncc(C#N)c2)c2c1[C@H](O)[C@H](F)C2 [Compound 77, 5-(((1S,2R)-2-fluoro-1-hydroxy-7-(methylsulfonyl)-2,3-dihydro-1H-inden-4-yl)oxy)nicotinonitrile]	5.97	5.74	
CS(=O)(=O)c1ccc(Oc2cc(F)cc(C#N)c2)c2c1[C@H](O)[C@H](F)[C@@H]2O [Compound 60, 3-fluoro-5-[(1S,2R,3R)-2-fluoro-1,3-dihydroxy-7-methylsulfonyl-indan-4-yl]oxy-benzonitrile]	5.88	5.87	
COc1cc(F)cc(Oc2ccc3c(c2Br)[C@@H](O)C(F)(F)S3(=O)=O)c1 [Compound 190, (R)-4-Bromo-2,2-difluoro-5-(3-fluoro-5-methoxyphenoxy)-3-hydroxy-2,3-dihydrobenzo[b]thiophene 1,1-dioxide]	6.38	7.24	
N#Cc1cccc(Oc2ccc3c(c2C(F)F)[C@@H](O)C(F)(F)S3(=O)=O)c1 [Compound 199, (R)-3-((4-(difluoromethyl)-2,2-difluoro-3-hydroxy-1,1-dioxido-2,3-dihydrobenzo[b]thiophen-5-yl)oxy)benzonitrile]	7.48	7.47	
N#Cc1cc(F)cc(Oc2ccc3c(c2C(F)F)C(=O)C(F)(F)S3(=O)=O)c1 [Compound 149, 3-((4-(Difluoromethyl)-2,2-difluoro-1,1-dioxido-3-oxo-2,3-dihydrobenzo[b]thiophen-5-yl)oxy)-5-fluorobenzonitrile]			pEC50 (786-O-Hif-Luc cells; [4]): 5.55; pIC50 [1, 5]: 5.62
N#Cc1cc(F)cc(Oc2ccc(S(=O)(=O)C(F)(F)F)c3c2CC(F)C3N)c1 (centres unmarked) [Compound 32, 3-((1-amino-2-fluoro-7-((trifluoromethyl)sulfonyl)-2,3-dihydro-1H-inden-4-yl)oxy)-5-fluorobenzonitrile]	5.61	5.45	
O=S1(=O)c2ccc(Oc3ccc(F)c(F)c3)c(C(F)F)c2[C@@H](O)C1(F)F [Compound 200, (R)-4-(Difluoromethyl)-5-(3,4-difluorophenoxy)-2,2-difluoro-3-hydroxy-2,3-dihydrobenzo[b]thiophene 1,1-dioxide]	7.10	7.62	
C#Cc1c(Oc2cc(F)cc(C#N)c2)ccc2c1C(O)C(F)(F)S2(=O)=O (centres unmarked) [Compound 173, 3-((4-Ethynyl-2,2-difluoro-3-hydroxy-1,1-dioxido-2,3-dihydrobenzo[b]thiophen-5-yl)oxy)-5-fluorobenzonitrile]	6.72	7.23	
O=S1(=O)c2ccc(OCc3ccccc3)c(C(F)F)c2C(O)C1(F)F (centres unmarked) [Compound 175, 5-Benzyloxy-4-(difluoromethyl)-2,2-difluoro-1,1-dioxo-3H-benzothiophen-3-ol]	6.29	6.25	
N#Cc1c(Oc2cccc(F)c2)ccc2c1[C@@H](O)CS2(=O)=O [Compound 186, (R)-5-(3-fluorophenoxy)-3-hydroxy-2,3-dihydrobenzo[b]thiophene-4-carbonitrile 1,1-dioxide]	6.31	6.13	
C=CCN=S(=O)(c1ccc(Oc2cc(F)cc(C#N)c2)c2c1[C@H](O)C(F)(F)C2)C(F)(F)F (single isomer, unassigned) [Compound 71]		6.43	pEC50 (786-O-Hif-Luc cells; [4]): 5.78
CS(=O)(=O)c1ccc(Oc2cncc(Br)c2)c2c1[C@H](O)C(F)(F)C2 [Compound 88, (S)-4-((5-Bromopyridin-3-yl)oxy)-2,2-difluoro-7-(methylsulfonyl)-2,3-dihydro-1H-inden-1-ol]	6.32	7.27	
CS(=O)(=O)c1ccc(Oc2cc(F)cc(C#N)c2)c2c1[C@H](N)C(F)(F)[C@@H]2F [Compound 110]	5.78	6.29	
N#Cc1cc(F)cc(Oc2ccc3c(c2F)C(O)C(F)(F)S3(=O)=O)c1 (centres unmarked) [Compound 198, 3-Fluoro-5-((2,2,4-trifluoro-3-hydroxy-1,1-dioxido-2,3-dihydrobenzo[b]thiophen-5-yl)oxy)benzonitrile]	6.05	6.01	

SMILES	pEC50 (786-O-Hif-Luc cells; [2])	pIC50 [1, 3]	also measured
C[C@@]1(F)Cc2c(Oc3cc(F)cc(C#N)c3)ccc(S(C)(=O)=O)c2[C@@H]1O [Compound 64, 3-fluoro-5-(((1S,2R)-2-fluoro-1-hydroxy-2-methyl-7-(methylsulfonyl)-2,3-dihydro-1H-inden-4-yl)oxy)benzonitrile]	5.55	5.69	
N#Cc1cc(F)cc(Oc2ccc(S(=O)(=O)C(F)(F)F)c3c2[C@@H](N)C[C@H]3O)c1 (relative stereo) [Compound 43, 3-((cis-3-amino-1-hydroxy-7-((trifluoromethyl)sulfonyl)-2,3-dihydro-1H-inden-4-yl)oxy)-5-fluorobenzonitrile]	5.23	5.29	
CS(=O)(=NC#N)c1ccc(Oc2cc(F)cc(C#N)c2)c2c1[C@H](O)[C@H](F)C2 (mixture of isomers) [Compound 66, N-(((2R,3S)-7-(3-cyano-5-fluorophenoxy)-2-fluoro-3-hydroxy-2,3-dihydro-1H-inden-4-yl)(methyl)(oxo)-λ^6-sulfanylidene)cyanamide]	6.94	7.20	
N#Cc1cncc(Oc2ccc(S(N)(=O)=O)c3c2CC(F)(F)[C@H]3O)c1 [Compound 25, (S)-7-((5-Cyanopyridin-3-yl)oxy)-2,2-difluoro-3-hydroxy-2,3-dihydro-1H-indene-4-sulfonamide]	5.96	4.75	
N#Cc1cc(F)cc(Oc2ccc(S(N)(=O)=O)c3c2C[C@@H](F)[C@H]3O)c1 [Compound 98, (2R,3S)-7-(3-cyano-5-fluoro-phenoxy)-2-fluoro-3-hydroxy-indane-4-sulfonamide]	6.65	7.14	
O=S1(=O)c2ccc(Oc3cccc4cn[nH]c34)c(C(F)F)c2C(O)C1(F)F (centres unmarked) [Compound 205, 5-((1H-Indazol-7-yl)oxy)-4-(difluoromethyl)-2,2-difluoro-3-hydroxy-2,3-dihydrobenzo[b]thiophene 1,1-dioxide]	5.16	5.75	
N#Cc1cc(F)cc(Oc2ccc(S(=O)(=O)C(F)(F)F)c3c2CC(F)C3N)c1 (single isomer, unassigned) [Compound 29, 3-((1-amino-2-fluoro-7-((trifluoromethyl)sulfonyl)-2,3-dihydro-1H-inden-4-yl)oxy)-5-fluorobenzonitrile]	6.05	7.05	
C[C@@H]1Cc2c(Oc3cc(F)cc(C#N)c3)ccc(S(C)(=O)=O)c2[C@@H]1O [Compound 65, 3-fluoro-5-(((1R,2R)-1-hydroxy-2-methyl-7-(methylsulfonyl)-2,3-dihydro-1H-inden-4-yl)oxy)benzonitrile]	5.68	5.73	
CC1(O)c2c(ccc(Oc3cc(F)cc(C#N)c3)c2C(F)F)S(=O)(=O)C1(F)F (centres unmarked) [Compound 206, 3-((4-(Difluoromethyl)-2,2-difluoro-3-hydroxy-3-methyl-1,1-dioxido-2,3-dihydrobenzo[b]thiophen-5-yl)oxy)-5-fluorobenzonitrile]	6.11	6.70	
CS(=O)(=O)c1ccc(Oc2cc(F)cc(C#N)c2)c2c1[C@H](O)C(F)(F)[C@@H]2O [Compound 76, 3-[(1S,3R)-2,2-difluoro-1,3-dihydroxy-7-methylsulfonyl-indan-4-yl]oxy-5-fluoro-benzonitrile]	6.20	6.82	
NC1c2c(ccc(Oc3cc(F)cc(F)c3)c2Br)S(=O)(=O)C1(F)F (centres unmarked) [Compound 140, 3-Amino-4-bromo-5-(3,5-difluorophenoxy)-2,2-difluoro-2,3-dihydrobenzo[b]thiophene 1,1-dioxide]			pEC50 (786-O-Hif-Luc cells; 24 h): 5.77; pIC50 [1, 5]: > 8.30
CC1(O)c2c(ccc(Oc3cc(F)cc(F)c3)c2Br)S(=O)(=O)C1(F)F (centres unmarked) [Compound 208, 4-Bromo-5-(3,5-difluorophenoxy)-2,2-difluoro-3-hydroxy-3-methyl-2,3-dihydrobenzo[b]thiophene 1,1-dioxide]	6.53	7.08	
N#CN=S1(=O)CC(O)c2c1ccc(Oc1cc(F)cc(F)c1)c2C(F)F (centres unmarked) [Compound 158, N-(4-(Difluoromethyl)-5-(3,5-difluorophenoxy)-3-hydroxy-1-oxido-2,3-dihydro-1λ^4-benzo[b]thiophen-1-ylidene)cyanamide]	5.73	5.83	
Cc1cc(C#N)cc(Oc2ccc3c(c2C(F)F)[C@@H](O)C(F)(F)S3(=O)=O)c1 [Compound 156, (R)-3-((4-(Difluoromethyl)-2,2-difluoro-3-hydroxy-1,1-dioxido-2,3-dihydrobenzo[b]thiophen-5-yl)oxy)-5-methylbenzonitrile]	7.00	> 8.30	
Cc1c(Oc2cc(F)cc(Cl)c2)ccc2c1C(O)C(F)(F)S2(=O)=O (centres unmarked) [Compound 123, 5-(3-Chloro-5-fluorophenoxy)-2,2-difluoro-3-hydroxy-4-methyl-2,3-dihydrobenzo[b]thiophene 1,1-dioxide]			pEC50 (786-O-Hif-Luc cells): 6.35; pIC50 [1, 5]: 7.82
